# Experimental data reported in patent publication US20100029615A1, “BENZIMIDAZOLE DERIVATIVES” (priority 2006, published 2010).
# Where a name gives a salt, the structure may show the parent alone.
# Target: T1, SMO (Mus musculus, UniProt P56726)
# T1 construct: endogenous in cells; host or cells: C3H10T1/2 (ATCC #CCL-226)
# Assay: Smoothened (SMO)/Sonic Hedgehog (SHh) Transient Transcriptional Activation Assay (Gli-luciferase reporter in C3H10T1/2 cells)
# Format: cell-based, murine
# Conditions: 2 uM test compound, SHh 250 ng/ml, 20 hrs
# Method in brief: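 C3H10T1/2 cells transiently transfected with a 10× murine Gli-responsive firefly luciferase reporter plus pEGFP, serum-starved 20 h in 0.5% calf serum, then treated with compounds (2 uM–2 nM final) and 250 ng/ml recombinant human SHh for 20 h at 37 °C. Read-out: Dual-Glo luminescence.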
# T1 sequence (P56726 33-793): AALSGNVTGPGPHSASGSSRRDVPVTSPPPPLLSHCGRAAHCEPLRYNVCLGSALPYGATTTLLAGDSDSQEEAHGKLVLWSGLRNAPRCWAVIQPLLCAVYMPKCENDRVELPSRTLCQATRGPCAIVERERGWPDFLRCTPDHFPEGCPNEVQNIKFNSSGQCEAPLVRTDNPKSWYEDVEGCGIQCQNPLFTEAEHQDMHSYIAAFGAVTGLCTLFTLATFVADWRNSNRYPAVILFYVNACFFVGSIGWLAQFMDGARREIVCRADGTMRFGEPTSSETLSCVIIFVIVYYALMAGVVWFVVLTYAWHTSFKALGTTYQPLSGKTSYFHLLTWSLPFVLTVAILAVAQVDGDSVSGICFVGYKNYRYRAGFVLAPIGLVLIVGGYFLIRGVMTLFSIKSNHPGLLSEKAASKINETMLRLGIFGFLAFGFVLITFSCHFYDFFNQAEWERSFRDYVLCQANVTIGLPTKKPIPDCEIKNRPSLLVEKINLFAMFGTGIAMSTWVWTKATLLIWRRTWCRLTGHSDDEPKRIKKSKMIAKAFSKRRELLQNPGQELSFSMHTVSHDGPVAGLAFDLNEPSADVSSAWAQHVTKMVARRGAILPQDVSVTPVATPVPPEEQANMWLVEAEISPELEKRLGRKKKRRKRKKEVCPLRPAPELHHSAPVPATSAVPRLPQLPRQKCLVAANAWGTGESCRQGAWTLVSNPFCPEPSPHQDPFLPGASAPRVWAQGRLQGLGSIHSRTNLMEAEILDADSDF
row,SMO % inhibition at 2 uM,Compound
1,104%,"N-(3-(5-(Aminomethyl)-1-methyl-1H-benzo[d]imidazol-2-yl)cyclohexyl)-3,5-dimethoxybenzamide and N-(3-(6-(aminomethyl)-1-methyl-1H-benzo[d]imidazol-2-yl)cyclohexyl)-3,5-dimethoxybenzamide [Example 23]"

# Same assay, conditions: 2 μM test compound, SHh 250 ng/ml, 20 hrs, HCl, 2 µM
row,SMO CELL % INHIBITION @ 2 μM,Compound
1,89%,"N#Cc1ccc(NC(=O)NC23CCCC(c4nc5cc(C(F)(F)F)ccc5[nH]4)(C2)C3)cc1 [Example 262, 1-(4-cyanophenyl)-3-{5-[5-(trifluoromethyl)-1H-benzimidazol-2-yl]bicyclo[3.1.1]hept-1-yl}urea HCl]"

# Same assay, conditions: C3H 10T1/2, 2 uM test compound, SHh 250 ng/ml, 20 hrs, read-out: SMO % inhibition at 2 uM
row,inhibition at 2 µM,Compound
1,87%,"COCCNc1cc(C(=O)N[C@@H]2CCC[C@H](c3nc4ccccc4[nH]3)C2)ccn1 [Example 42, N-((1R,3S)-3-(1H-Benzo[d]imidazol-2-yl)cyclohexyl)-2-(2-methoxyethylamino)isonicotinamide]"
2,84%,"COc1cc(OC)cc(C(=O)NC2CCCC(c3nc4cc(C)ccc4n3C)C2)c1 (centres unmarked) [Example 27, N-(3-(1,5-Dimethyl-1H-benzo[d]imidazol-2-yl)cyclohexyl]-3,5-dimethoxybenzamide]"
3,105%,"COc1cc(OC)cc(C(=O)N[C@@H]2CCC[C@H](c3nc4ccc(C(F)(F)F)cc4[nH]3)C2)c1 [Example 4, 3,5-Dimethoxy-N-((1R,3S)-3-[5-(trifluoromethyl)-1H-benzo[d]imidazol-2-yl)cyclohexyl)benzamide]"

# Same assay, conditions: C3H 10T1/2, 2 μM test compound, SHh 250 ng/ml, 20 hrs, read-out: SMO CELL % INHIBITION @ 2 μM
row,inhibition at 2 µM,Compound
1,91.6%,"Cn1c([C@H]2CCC[C@@H](NC(=O)c3ccc4c(c3)CNCC4)C2)nc2ccccc21 [Example 310, N-[(1R,3S)-3-(1-methyl-1H-benzimidazol-2-yl)cyclohexyl]-1,2,3,4-tetrahydroiso-quinoline-7-carboxamide HCl]"
2,71%,"CN(C)S(=O)(=O)CC(=O)NC1CCCC(c2nc3ccccc3[nH]2)C1 (centres unmarked) [Example 162, N-[3-(1H-benzimidazol-2-yl)cyclohexyl]-2-{(dimethylamino)-sulfonyl]-acetamide triflouroacetate]"
3,103%,"COc1ccc(NC(=O)N[C@@H]2CCC[C@H](c3nc4ccccc4[nH]3)C2)cc1 [Example 232, 1-[(1R,3S)-3-(1H-benzimidazol-2-yl)cyclohexyl]-3-(4-methoxyphenyl) urea]"
4,110%,"O=C(NC12CCCC(c3nc4cc(Cl)ccc4[nH]3)(C1)C2)c1ccc2c(c1)OCCO2 [Example 272, N-[5-(5-chloro-1H-benzimidazol-2-yl)bicyclo[3.1.1]hept-1-yl]-2,3-dihydro-1,4-benzodioxine-6-carboxamide]"
5,101%,"COCCn1c([C@H]2CCC[C@@H](NC(=O)c3ccc4c(c3)OCCO4)C2)nc2ccccc21 [Example 76, N-{(1R,3S)-3-[1-(2-methoxyethyl)-1H-benzimidazol-2-yl]cyclohexyl}-2,3-dihydro-1,4-benzodioxine-6-carboxamide]"
6,73%,"Cc1cc(C(=O)N[C@@H]2CCC[C@H](c3nc4ccccc4[nH]3)C2)n(C)n1 [Example 177, N-[(1R,3S)-3-(1H-benzimidazol-2-yl)cyclohexyl]-1,3-dimethyl-1H-pyrazole-5-carboxamide HCl]"
7,83%,"COc1cc(OC)cc(C(=O)NC2CCCC(c3nc4ccc(F)cc4[nH]3)C2)c1 (centres unmarked) [Example 70, N-[3-(6-fluoro-1H-benzimidazol-2-yl)cyclohexyl]-3,5-dimethoxybenz-amide]"
8,101%,"COc1cc(OC)cc(C(=O)N[C@@H]2CCC[C@H](c3nc4ccccc4n3C)C2)c1 [Example 167, 3,5-dimethoxy-N[(1R,3S)-3-(1-methyl-1H-benzimidazol-2-yl)cyclohexyl] benzamide HCl]"
9,98.5%,"O=C(N[C@@H]1CCC[C@H](c2nc3cc(C(F)(F)F)ccc3[nH]2)C1)c1n[nH]c2c1CCCC2 [Example 281, N-{(1R,3S)-3-[5-(trifluoromethyl)-1H-benzimidazol-2-yl]cyclohexyl]-4,5,6,7-tetrahydro-1H-indazol-3-carboxamide HCl]"
10,83%,"COc1ccc2cc(C(=O)NC3CCCC(c4nc5ccccc5[nH]4)C3)n(C)c2c1 (centres unmarked) [Example 118, N-[3-(1H-benzimidazol-2-yl)cyclohexyl]-6-methoxy-1-methyl-1H-indole-2-carboxamide triflouroacetate]"
11,72%,"COc1ccc(C(=O)NC2CCCC(c3nc4ccccc4[nH]3)C2)cc1 (centres unmarked) [Example 62, N-[3-(1H-benzimidazol-2-yl)cyclohexyl]-4-methoxybenz-amide HCl]"
12,106%,"O=C(N[C@@H]1CCC[C@H](c2nc3ccccc3[nH]2)C1)c1cc2ccccc2s1 [Example 182, N-[(1R,3S)-3-(1H-benzimidazol-2-yl)cyclohexyl]-1-benzothiophene-2-carboxamide triflouroacetate]"
13,23%,"COc1ccc2[nH]c([C@@H]3CCC[C@H](NC(=O)c4ccc5c(c4)OCCO5)C3)nc2c1 [Example 239, N-((1S,3R)-3-(5-methoxy-1H-benzo[d]imidaz-ol-2-yl)cyclohexyl)-2,3-dihydrobenzo[b] [1,4]dioxine-6-carboxamide HCl]"
14,64%,"O=C(N[C@@H]1CCC[C@H](c2nc3ccccc3[nH]2)C1)c1cccc2ccccc12 [Example 188, N-[(1R,3S)-3-(1H-benzimidazol-2-yl)cyclohexyl]-1-naphthamide triflouroacetate]"
15,87%,"O=C1Cc2cc(C(=O)N[C@@H]3CCC[C@H](c4nc5ccccc5[nH]4)C3)ccc2N1 [Example 219, N-[(1R,3S)-3-(1H-benzimidazol-2-yl)cyclohexyl]-2-oxoindoline-5-carboxamide triflouroacetate]"
16,81%,"Cn1c(C(=O)N[C@@H]2CCC[C@H](c3nc4ccccc4[nH]3)C2)nc2ccccc21 [Example 175, N-[(1R,3S)-3-(1H-benzimidazol-2-yl)cyclohexyl]-1-methyl-1H-benzimidazole-2-carboxamide HCl]"
17,82%,"O=C(NC1CCCC(c2nc3ccccc3[nH]2)C1)c1ccc2c(c1)OCO2 (centres unmarked) [Example 58, N-[3-(1H-benzimidazol-2-yl)cyclohexyl]-1,3-benzodioxole-5-carboxamide HCl]"
18,106%,"O=C(N[C@@H]1CCC[C@H](c2nc3ccc(Br)cc3[nH]2)C1)c1ccc2c(c1)OCCO2 [Example 224, N-[(1R,3S)-3-(6-bromo-1H-benzimidazol-2-yl)cyclohexyl]-2,3-dihydro-1,4-benzodioxine-6-carboxamide HCl]"
19,93%,"N#CCC(=O)NC1CCCC(c2nc3ccccc3[nH]2)C1 (centres unmarked) [Example 102, N-[3-(1H-benzimidazaol-2-yl)cyclohexyl]-2-cyanoacetamide triflouroacetate]"
20,103%,"O=C(NC1CCCC(c2nc3cc(F)c(F)cc3[nH]2)C1)c1ccc2c(c1)OCCO2 (centres unmarked) [Example 83, N-[3-(5,6-difluoro-1H-benzimidazol-2-yl)cyclohexyl]-2,3-dihydro-1,4-benzodioxine-6-carboxamide HCl]"
21,104%,"COc1cc(OC)cc(C(=O)N[C@@H]2CCC[C@H](c3nc4cc(Cl)ccc4[nH]3)C2)c1 [Example 298, N-[(1R,3S)-3-(5-chloro-1H-benzimidazol-2-yl)cyclohexyl]-3,5-dimethoxybenz-amide (+)-tartrate]"
